According to patent US12453723B2, “Use of chidamide in preparing drug for treating renal fibrosis” (THE SECOND AFFILIATED HOSPITAL OF SOOCHOW UNIVERSITY, priority 2023, dated 2025):

Columns and labels:
[1] = tested on: TGF-β stimulated renal tubular epithelial cells HK-2; test: Fibrosis markers in TGF-β stimulated HK-2 cells (immunoblotting, qPCR); assay type: cell-based; details: different concentrations of chidamide
Experimental: Example 1 verified that HDAC1/2/3/10 can participate in renal fibrosis, and example 2 further explored the effect of chidamide on renal fibrosis in TGF-β stimulated renal tubular epithelial cells. In example 2, cells were treated by using different concentrations of chidamide and then stimulated by adding TGF-β, and the protein expression and mRNA levels of fibrosis markers were detected respectively by using immunoblotting and qPCR experiments.
In FIG. 2, (A) the effect of different concentrations of chidamide on protein expression of fibrosis markers α-SMA and Vimentin (Vim) in TGF-β stimulated HK-2 cells was detected by the immunoblotting experiment; (B-C) the statistical results of α-SMA and Vimentin in FIG. A in 3 biological duplications, Mean±SDs, Student's t-test, *: P<0.05; **: P<0.01; (D-E) the effect of different concentrations of chidamide on […] experiment in TGF-β stimulated HK-2 cells, and the statistical resultsare 3 technical duplications, Mean±SD, Student's t-test, *: P<0.05, **: P<0.01, ***: P<0.001, ****: P<0.0001.

[2] = tested on: UUO mice; test: Renal fibrosis mouse model (UUO): renal morphology, renal function, collagen deposition, fibrosis markers; assay type: in vivo
Description: In this example, a renal fibrosis mouse model (UUO: Unilateral Uretera Obstruction, renal interstitial fibrosis model) was constructed through UUO surgery at the same time. On the 7th day after surgery, the protein expression of HDAC1/2/3/10 in test group (UUO) and control group (Sham) was detected respectively through immunoblotting and immunohistochemical tests.
In this example, mice were divided into 7 groups at random with 7 mice in each group, which were Sham group (sham), Sham+chidamide group (Sham-Chi 10 mg/kg/d), model group (UUO), UUO+Enacept positive control group (UUO-En 10 mg/kg/d), UUO+chidamide low-dose administration group (UUO-Chi 1 mg/kg/d), UUO+chidamide medium-dose administration group (UUO-Chi 5 mg/kg/d) and UUO+chidamide high-dose administration group (UUO-Chi 10 mg/kg/d), respectively. All drugs were administrated by gavage 3 days before modeling, once a day, until 7 days after surgery. Mice were weighed everyday after surgery, and then growth curves were plotted. After administration was ended, the mice were anesthetized, the eye sockets were removed and bloods were collected for the detection of serum creatinine (Scr) and urea nitrogen (BUN). At the same time, left and right kidneys were taken and then weighed after hydronephrosis was removed, so as to obtain the renal weight indexes of the obstructed kidneys in mice (kidney weight/mouse weight at the obstructed side). The photos were taken.
In FIG. 3, (A) the weight growth curve of mice verified the effect of UUO modeling and intragastric administration of chidamide on mouse weight, n=7, Mean±SDs, Student's t-test, ns: not significant; (B) the renal weight index change of mice (the statistical chart above, n=4, Mean±SDs, Student's t-test, *: P<0.05, **: P<0.01, ****: P<0.0001, ns: not significant) and renal tissue in vitro photos (below) verified the effect of chidamide on renal morphological changes of UUO mice; (C-D) mouse creatinine (C) and urea nitrogen (D) changes verified the effect of chidamide on renal functions of UUO mice, n=5-6, Mean±SDs, Student's t-test, *: P<0.05, **: P<0.01, ***: P<0.001, ns: not significant.
In the above constructed UUO mouse model of this example, the effect of chidamide on renal interstitial collagen fiber deposition was detected further by Masson staining.
In FIG. 4, (A-B) the deposition of renal interstitial collagen fibers was detected after UUO modeling and chidamide was administrated, (A) a typical picture for Masson staining; (B) the statistical results of Masson staining area proportion, n=6, Mean±SDs, Student's t-test, *: P<0.05, **: P<0.01, ****: P<0.0001, ns: not significant.
In this example, the improvement effect of chidamide on UUO renal fibrosis was further detected. In the above constructed UUO mouse model of this example, the effect of chidamide on protein expression of renal fibrosis markers was detected respectively by immunohistochemistry and immunoblotting experiments, and the change in fibrosis marker mRNA was detected by the qPCR experiment. […]

[3] = tested on: PI3K/Akt signaling pathway; test: PI3K/Akt signaling pathway in TGF-β stimulated HK-2 cells (immunoblotting); assay type: cell-based
Description: (§1) The PI3K-Akt signaling pathway is an intracellular signal transduction pathway which responds to extracellular signals, promotes metabolism, proliferation, cell survival, growth and angiogenesis, and participates in pathophysiological processes of multiple diseases. […] The above experimental results all verify that chidamide can inhibit the PI3K/Akt signaling pathway.
(§2) In FIG. 7, (A) the effects of chidamide onprotein expression of p-PI3K, PI3K, p-Akt and Akt in TGF-β stimulated renal tubular epithelial cell HK-2 were detected by the immunoblotting experiment; (B-C) the statistical charts showingthe effect of chidamide onp-PI3K/PI3K and p-Akt/Akt ratios in TGF-β stimulated renal tubular epithelial cell HK-2, n=3, Mean±SDs, Student's t-test, *: P<0.05; (D) the effectof chidamide on protein expression of p-PI3K, PI3K, p-Akt and Akt in UUO mouse model was detected by the immunoblotting experiment (n=4); (E) the effect of chidamide on proein expression of autophagy markers of TGF-β stimulated renal tubular epithelial cell HK-2 was detected by the immunoblotting experiment; (F) the effect of chidamide on protein expression of autophagy markers as well as p-mTOR and mTOR in UUO mouse model was detected by the immunoblotting experiment (n=4).

[4] = tested on: PI3K/Akt signaling pathway; test: PI3K/Akt signaling pathway in UUO mouse model (immunoblotting); assay type: in vivo
Description: as §1, §2

[5] = tested on: TGF-β stimulated renal tubular epithelial cells HK-2; test: PI3K inhibitor LY 294002 and chidamide on fibrosis markers Collagen I and α-SMA in TGF-β stimulated HK-2 (immunoblotting); assay type: cell-based; details: FIG. 8B
Description: Subsequently, this example further investigated the change of chidamide on fibrosis markers after LY 294002 treatment was used in TGF-β stimulated renal tubular epithelial cells HK-2. […] The above experimental results initially verify that chidamide is very likely to inhibit the progression of renal fibrosis through the PI3K/Akt signaling pathway.
In FIG. 8, (A) the effect of different concentrations of LY 294002 (LY) on protein expression of fibrosis markers Collagen I and α-SMA in TGF-β stimulated renal tubular epithelial cells HK-2 was detected by the immunoblotting experiment; (B) the effect of LY 294002 (LY) on fibrosis marker Collagen I and α-SMA protein expression by chidamide was detected in TGF-β stimulated renal tubular epithelial cells HK-2 by the immunoblotting experiment.

- weight growth curve of mice ([2]; intragastric administration at various doses (1, 5, 10 mg/kg/d), once a day, 3 days before modeling until 7 days after surgery, FIG. 3A): did not affect the growth of mice
SMILES: Nc1cc(F)ccc1NC(=O)c1ccc(CNC(=O)/C=C/c2cccnc2)cc1 [chidamide, N-(2-amino-4-fluorophenyl)-4-[N-[(E)-3-(3-pyridine)acryloyl]aminomethyl]benzamide]
- protein expression of fibrosis markers (α-SMA, Vimentin) ([1]; immunoblotting, FIG. 2A-C): significantly decreased
- mRNA level of fibrosis markers (α-SMA, Vimentin) ([1]; qPCR, FIG. 2D-E): significantly decreased
- serum creatinine (Scr) ([2]; UUO mice after chidamide administration, FIG. 3C): obviously fall back
- urea nitrogen (BUN) ([2]; UUO mice after chidamide administration, FIG. 3D): obviously fall back
- renal interstitial collagen fiber deposition ([2]; UUO mice, Masson staining, FIG. 4): significantly improved
- protein expression of renal fibrosis markers ([2]; UUO mouse renal tissues, immunohistochemistry and immunoblotting, FIGS. 5A-E): significantly fall back
- mRNA of renal fibrosis markers ([2]; UUO mouse renal tissues, qPCR, FIGS. 5F-I): significantly fall back
- ureteral dilation degree and renal tissue squeezing degree ([2]; UUO+chidamide group compared with UUO group, FIG. 3B): less than those in corresponding UUO group
- obstruction renal weight index (kidney weight/mouse weight at the obstructed side) ([2]; UUO+chidamide group compared with UUO group, gavage, FIG. 3B): significantly decreased
- autophagy flow (autophagy markers) ([3]; FIG. 7E): restore an autophagy flow
- p-Akt/Akt ratio ([3]; FIGS. 7A-C): significantly reduced
- p-PI3K/PI3K ratio ([3]; FIGS. 7A-C): significantly reduced
- p-Akt/Akt ratio ([4]; FIG. 7D): significantly reduced
- p-PI3K/PI3K ratio ([4]; FIG. 7D): significantly reduced
- autophagy flow (autophagy markers) ([4]; FIG. 7F): restore an autophagy flow
- p-mTOR/mTOR ratio ([4]; FIG. 7F): reduce
- expression of fibrosis markers Collagen I and α-SMA ([5]; TGF-β stimulated HK-2, chidamide with PI3K inhibitor LY 294002 used simultaneously): cannot affect the expression of fibrosis markers any more
- protein expression of fibrosis markers Collagen I and α-SMA ([5]; TGF-β stimulated HK-2, used alone): can inhibit
